Laboratory results reported in patent USRE48335E1, “Polymyxin derivatives as antimicrobial compounds” (priority 2014, dated 2020).
≈ marks a conversion by molar mass, not a printed value. Read-outs that look alike come from different tables or passages of the source. Positions of bridges follow the written chain, without caps; N, C: chain ends. Non-standard residues stand in square brackets, D forms with d. Residues, ends and D or L forms follow the SMILES beside them. *: point of attachment. Benzoyl(4-Ph) = O=C(c1ccc(-c2ccccc2)cc1)*; Decanoyl = CCCCCCCCCC(=O)*; Nonanoyl = CCCCCCCCC(=O)*; Dab = NCC[C@H](N)C(=O)O; Abu = CC[C@H](N)C(=O)O; Dap = NC[C@H](N)C(=O)O; PhAc = O=C(Cc1ccccc1)*

Experiments:
Acinetobacter baumannii = test system: Acinetobacter baumannii
Procedure, shortened: (§1)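 Read-out is the MIC, obtained by broth microdilution under CLSI guidance. Lipopeptides (TFA salt form) were diluted in cation-adjusted Mueller-Hinton broth, with polymyxin B sulphate run alongside as control.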

Enterobacter cloacae = test system: Enterobacter cloacae
Procedure, shortened: as §1

Klebsiella pneumoniae = test system: Klebsiella pneumoniae
Procedure, shortened: as §1

Pseudomonas aeruginosa = test system: Pseudomonas aeruginosa
Procedure, shortened: as §1

P. aeruginosa ATCC 27853 = assay: In vivo efficacy in mouse blood infection model (neutropenic Swiss mice); details: compound, free base 4 mg/kg intravenously 2 h after inoculation, blood at 4 h
Description: P. aeruginosa ATCC 27853, A. baumannii ATCC 19606 and K. pneumoniae FADDI-KP032 were subcultured on nutrient agar plates. One colony of each bacterial strain was dispersed in 10-mL CAMHB and incubated overnight. On day 2, an aliquot (0.2 mL) of each overnight culture suspension was dispersed in 20-mL CAMHB and incubated for 1.5-2.5 h for production of early log-phase growth bacterial culture. The bacteria in the early log-phase growth suspension were concentrated by centrifugation (3,220 g for 10 min) and re-suspended in sterile 0.9% saline for inoculation into mice. The bacterial cell concentration (colony forming unit [CFU]/mL) in saline was estimated by determining the optical density (OD) of the suspension at 600 nm, and confirmed by plating the suspension on nutrient agar plates. Swiss mice (22 to 28 g) were rendered neutropenic by injecting two doses of cyclophosphamide intraperitoneally, −4 day (150 mg/kg) and −1 day (100 mg/kg) prior to inoculation. Bloodstream infection was established by injecting intravenously 50 μL of early log-phase bacterial suspension (10^8-10^9 CFU/mL). The exact injection volume for each bacterial suspension was calculated based upon the OD value of the bacterial suspension and the desired inoculum for each isolate.
Solutions for administration of colistin, polymyxin B or the compounds were prepared at a concentration of 1 mg (free base) per mL in sterile 0.9% saline. At 2 h after inoculation, a mouse in the treatment groups was injected intravenously with one of the above solutions at 4 μL/g body weight (BW) (i.e. free base 4 mg/kg BW), while the same volume of saline was injected into the control mice. At 0 h or at 4 h after the administration of antibacterial drug or saline (control), animals were euthanised by inhalation of overdose isoflurane. The skin on the chest and fore-paws of each animal was thoroughly cleansed with 70% ethanol and Betadine®. The blood was collected via cardiac puncture using a 1-mL syringe rinsed with heparin (5,000 IU/mL), diluted serially in sterile 0.9% saline and plated on nutrient agar plates using a spiral plater.
The agar plates were incubated at 37° C. overnight. The bacterial colonies on the plate were counted and CFU/mL of the blood was calculated. The log10 CFU/mL of blood in each mouse was calculated. The in vivo activity of the compounds against the bacteria was calculated as the difference of the log10 CFU/mL values between the treated mice and the control mice at 4 h (Δ log=log10 (treated)CFU/mL−log10 (control)CFU/mL).
Any compound showing a decrease in bacterial loading (Δ log) of ≥2 at 4 h is considered to have good in vivo efficacy in this initial screening model.

[1] = Acinetobacter baumannii ATCC 17978, broth microdilution in CAMHB
[2] = Acinetobacter baumannii ATCC 19606, broth microdilution in CAMHB
[3] = Acinetobacter baumannii FADDI-AB034, broth microdilution in CAMHB
[4] = Enterobacter cloacae FADDI-EC001, broth microdilution in CAMHB
[5] = Enterobacter cloacae FADDI-EC003, broth microdilution in CAMHB
[6] = Enterobacter cloacae FADDI-EC006, broth microdilution in CAMHB
[7] = Pseudomonas aeruginosa ATCC 27853, broth microdilution in CAMHB
[8] = Pseudomonas aeruginosa FADDI-PA022, broth microdilution in CAMHB
[9] = Pseudomonas aeruginosa FADDI-PA025, broth microdilution in CAMHB

| Structure (SMILES) | MIC (Acinetobacter baumannii) | Minimum inhibitory concentration, Ab A ATCC 17978 (Acinetobacter baumannii) | Minimum inhibitory concentration, Ab ATCC 19606 (Acinetobacter baumannii) | Minimum inhibitory concentration, Ab FADDI-AB034 (Acinetobacter baumannii) | Minimum inhibitory concentration, Ec FADDI-EC001 (Enterobacter cloacae) | Minimum inhibitory concentration, Ec FADDI-EC003 (Enterobacter cloacae) | Minimum inhibitory concentration, Ec FADDI-EC006 (Enterobacter cloacae) | MIC (Klebsiella pneumoniae) | MIC (Pseudomonas aeruginosa) | Minimum inhibitory concentration, Pa ATCC 27853 (Pseudomonas aeruginosa) | Minimum inhibitory concentration, Pa FADDI-PA022 (Pseudomonas aeruginosa) | Minimum inhibitory concentration, Pa FADDI-PA025 (Pseudomonas aeruginosa) | Δ log (Treated-Control at 4 h) (P. aeruginosa ATCC 27853) | MIC (Acinetobacter baumannii; A. baumannii ATCC 19606) | Minimum inhibitory concentration, Ab A ATCC 17978 (Acinetobacter baumannii; [1]) | Minimum inhibitory concentration, Ab ATCC 19606 (Acinetobacter baumannii; [2]) | Minimum inhibitory concentration, Ab FADDI-AB034 (Acinetobacter baumannii; [3]) | Minimum inhibitory concentration, Ec FADDI-EC001 (Enterobacter cloacae; [4]) | Minimum inhibitory concentration, Ec FADDI-EC003 (Enterobacter cloacae; [5]) | Minimum inhibitory concentration, Ec FADDI-EC006 (Enterobacter cloacae; [6]) | other results |
| --- | --- | --- | --- | --- | --- | --- | --- | --- | --- | --- | --- | --- | --- | --- | --- | --- | --- | --- | --- | --- | --- |
| CCCCCCCCCC(=O)N[C@@H](CCN)C(=O)N[C@H](C(=O)N[C@@H](CCN)C(=O)N[C@H]1CCNC(=O)[C@H]([C@@H](C)O)NC(=O)[C@H](CCN)NC(=O)[C@H](CCN)NC(=O)[C@H]([C@@H](C)O)NC(=O)[C@@H](CC(C)C)NC(=O)[C@H](CCN)NC1=O)[C@@H](C)O [Compound 27] (Decanoyl-[Dab]T[Dab][Dab][Dab][dL]T[Dab][Dab]T; lactam 4-C) | 1 mg/L (≈ 0.854 µM) | 1 mg/L (≈ 0.854 µM) | 1 mg/L (≈ 0.854 µM) | 1 mg/L (≈ 0.854 µM) | <0.125 mg/L | <0.125 mg/L | 0.25 mg/L (≈ 0.213 µM) | 0.5 mg/L (≈ 0.427 µM) | 1 mg/L (≈ 0.854 µM) | 1 mg/L (≈ 0.854 µM) | 1 mg/L (≈ 0.854 µM) | 16 mg/L (≈ 13.7 µM) | −3.67 log10 CFU/mL |  |  |  |  |  |  |  |  |
| CC(C)C[C@H]1NC(=O)[C@H](CCN)NC(=O)[C@@H](NC(=O)[C@H](CCN)NC(=O)[C@@H](NC(=O)[C@H](CCN)NC(=O)c2ccc(-c3ccccc3)cc2)[C@@H](C)O)CCNC(=O)[C@H]([C@@H](C)O)NC(=O)[C@H](CCN)NC(=O)[C@H](CCN)NC(=O)[C@H]([C@@H](C)O)NC1=O [Compound 29] ({Benzoyl(4-Ph)}-[Dab]T[Dab][Dab][Dab][dL]T[Dab][Dab]T; lactam 4-C) |  |  |  |  |  |  |  |  |  |  |  |  | −2.80 log10 CFU/mL | 8 mg/L (≈ 6.68 µM) | 2 mg/L (≈ 1.67 µM) | 8 mg/L (≈ 6.68 µM) | 4 mg/L (≈ 3.34 µM) | 0.5 mg/L (≈ 0.418 µM) | 1 mg/L (≈ 0.835 µM) | 0.5 mg/L (≈ 0.418 µM) | MIC (Klebsiella pneumoniae; K. pneumoniae FADDI-KP032): 1 mg/L (≈ 0.835 µM); MIC (Pseudomonas aeruginosa; P. aeruginosa ATCC 27853): 1 mg/L (≈ 0.835 µM); Minimum inhibitory concentration, Pa ATCC 27853 (Pseudomonas aeruginosa; [7]): 1 mg/L (≈ 0.835 µM); Minimum inhibitory concentration, Pa FADDI-PA022 (Pseudomonas aeruginosa; [8]): 4 mg/L (≈ 3.34 µM); Minimum inhibitory concentration, Pa FADDI-PA025 (Pseudomonas aeruginosa; [9]): 32 mg/L (≈ 26.7 µM) |
| CC(C)C[C@H]1NC(=O)[C@H](CCN)NC(=O)[C@@H](NC(=O)[C@H](CCN)NC(=O)[C@@H](NC(=O)[C@H](CCN)NC(=O)Cc2ccccc2)[C@@H](C)O)CCNC(=O)[C@H]([C@@H](C)O)NC(=O)[C@H](CCN)NC(=O)[C@H](CCN)NC(=O)[C@H]([C@@H](C)O)NC1=O [Compound 30] (PhAc-[Dab]T[Dab][Dab][Dab][dL]T[Dab][Dab]T; lactam 4-C) |  |  |  |  |  |  |  |  |  |  |  |  | −0.39 log10 CFU/mL | 32 mg/L (≈ 28.2 µM) | 32 mg/L (≈ 28.2 µM) | 32 mg/L (≈ 28.2 µM) | 32 mg/L (≈ 28.2 µM) | 2 mg/L (≈ 1.76 µM) | 2 mg/L (≈ 1.76 µM) | 4 mg/L (≈ 3.52 µM) | MIC (Klebsiella pneumoniae; K. pneumoniae FADDI-KP032): 1 mg/L (≈ 0.881 µM); MIC (Pseudomonas aeruginosa; P. aeruginosa ATCC 27853): 1 mg/L (≈ 0.881 µM); Minimum inhibitory concentration, Pa ATCC 27853 (Pseudomonas aeruginosa; [7]): 1 mg/L (≈ 0.881 µM); Minimum inhibitory concentration, Pa FADDI-PA022 (Pseudomonas aeruginosa; [8]): 1 mg/L (≈ 0.881 µM); Minimum inhibitory concentration, Pa FADDI-PA025 (Pseudomonas aeruginosa; [9]): >32 mg/L |
| CCCCCCCCC(=O)N[C@@H](CCN)C(=O)N[C@H](C(=O)N[C@@H](CN)C(=O)N[C@H]1CCNC(=O)[C@H]([C@@H](C)O)NC(=O)[C@H](CCN)NC(=O)[C@H](CCN)NC(=O)[C@H](CC)NC(=O)[C@@H](CC(C)C)NC(=O)[C@H](CCN)NC1=O)[C@@H](C)O [Compound 59] (Nonanoyl-[Dab]T[Dap][Dab][Dab][dL][Abu][Dab][Dab]T; lactam 4-C) | 2 mg/L (≈ 1.77 µM) | 1 mg/L (≈ 0.887 µM) | 2 mg/L (≈ 1.77 µM) | 0.5 mg/L (≈ 0.443 µM) | 1 mg/L (≈ 0.887 µM) | 1 mg/L (≈ 0.887 µM) | 0.5 mg/L (≈ 0.443 µM) | <0.125 mg/L | 1 mg/L (≈ 0.887 µM) | 1 mg/L (≈ 0.887 µM) | 2 mg/L (≈ 1.77 µM) | 2 mg/L (≈ 1.77 µM) | −2.82 log10 CFU/mL |  |  |  |  |  |  |  |  |
